The experiment deals with SKBR-3 cell line (human breast cancer). Briefly: 2D-cytotoxicity assay of free payloads (Cell titer glow, 72 hours). The experiment is classed as cell-based. As for the experimental part:
Protocol: Day 1:5,000 cells/well were plated and incubated at 37° C. overnight, unless otherwise noted.
Day 2: Payload/vehicle control dilutions were made in respective media and added to cells. Volume added: 50 μL to each well. Starting treatment concentration was 0.1 mM for free payloads/10% for vehicle control and then diluted 10-fold down for a total of 11 treatment dilutions. Each concentration was analyzed in triplicates. Media-only wells was used as a control to calculate percent viability.
Day 5: Cell titer glow reagent (volume: 50 μL) was added to each well, the plate was shaken for 5 mins and the luminescence was recorded.
Drug Treatment Time: 72 hours.
Data Analysis: Percent viability was calculated by dividing the luminescence signal obtained for each treated well by the untreated well (media-only control) and multiplying by 100. Data was next transformed using X=Log (x) and then analyzed with nonlinear regression (curve fit), Dose Response inhibition−log (inhibitor) vs response (3 parameters) using PRISM software to determine the IC50 value.
For orientation: Cellular ATP, detected with luciferase, serves as a proxy for viable cell number.

Setting [1] is: Homo sapiens, SK-BR-3, SKBR-3, 5,000 cells/well, read-out: IC50.
Setting [2] is: Homo sapiens, SK-BR-3, 72 h, SKBR-3, 5,000 cells/well.
Where [3] appears, read: SKBR-3, 5,000 cells/well, read-out: IC50.
Where [4] appears, read: Homo sapiens, SK-BR-3, SKBR-3, 2000 cells/well, read-out: IC50.

For orientation: IC50 means the point on the concentration scale where inhibition reaches its midpoint.

Where two headings read alike, the source gives them in different places.

Turning to `CC[C@@]1(O)C(=O)OCc2c1cc1n(c2=O)C(C)(C)c2c-1nc1cc(F)c(C)c3c1c2CCC3` [Compound E-25], under setting [1], the IC50 was 3040 nM.

With `CC[C@@]1(O)C(=O)OCc2c1cc1n(c2=O)Cc2c-1nc1cc(F)c(C)c3c1c2C(O)CC3` (some centres unmarked) [Compound E-1], the IC50 under setting [1] was 3.27 nM.

Regarding `C=CCC1c2c(nc3cc(F)c(C)c4c3c2CCC4)-c2cc3c(c(=O)n21)COC(=O)[C@]3(O)CC` (some centres unmarked) [Compound E-21], the IC50 under setting [1] is 415 nM.

`CC[C@@]1(O)C(=O)OCc2c1cc1n(c2=O)Cc2c-1nc1cc(F)c(C)c3c1c2C(OCNC(=O)CNC)CC3` (some centres unmarked) [Compound E-42] came in with an IC50 (Homo sapiens, SK-BR-3, 72 h, SKBR-3, 1000 cells/well) of 12 nM.

`CC[C@@]1(O)C(=O)OCc2c1cc1n(c2=O)C(O)c2c-1nc1cc(F)c(C)c3c1c2CCC3` (some centres unmarked) [Compound E-19] came in with a concentration for half-maximal inhibition (IC50) under setting [2] of 75.7 nM.

On to `CC[C@@]1(O)C(=O)OCc2c1cc1n(c2=O)Cc2c-1nc1cc(F)c(C)c3c1c2[C@@H](NC(=O)CO)CC3` [Exatecan Glycolamide, reference compound], for which the IC50 under setting [3] amounted to 5.06 nM.

As to `CCC1(O)C(=O)OCc2c1cc1n(c2=O)Cc2c-1nc1cc(F)c(C)c3c1c2CCC3` (centres unmarked) [Compound E-10], under setting [2], the IC50 was determined as 2.7 nM.

Consider `CC[C@@]1(O)C(=O)OCc2c1cc1n(c2=O)Cc2c-1nc1cc(F)c(C)c3c1c2C(=O)CC3` [Compound E-2], for which the IC50 by setting is: (Homo sapiens, SK-BR-3, 72 h, SKBR-3, 5,000 cells/well, payload in ACN:Water) 27.7 nM; (Homo sapiens, SK-BR-3, 72 h, SKBR-3, 5,000 cells/well, payload in DMSO) 73.2 nM.

For the molecule `C=CCC1(CC=C)c2c(nc3cc(F)c(C)c4c3c2CCC4)-c2cc3c(c(=O)n21)COC(=O)[C@]3(O)CC` [Compound E-23], the IC50 under setting [1] was 3580 nM.

For `CC[C@@]1(O)C(=O)OCc2c1cc1n(c2=O)Cc2c-1nc1cc(F)c(C)c3c1c2C(OCNC(=O)CN)CC3` (some centres unmarked) [Compound E-35], under setting [2], the half-maximal inhibitory concentration (IC50) came out at 7.68 nM.

As for `CC[C@@]1(O)C(=O)OCc2c1cc1n(c2=O)Cc2c-1nc1cc(F)c(C)c3c1c2[C@H](OCNC(=O)CN)CC3` (single isomer, unassigned) [E-35a*], the IC50 under setting [4] came to 28.1 nM.

Under setting [2], `CC[C@@]1(O)C(=O)OCc2c1cc1n(c2=O)Cc2c-1nc1cc(F)c(C)c3c1c2C(=NO)CC3` [Compound E-29] had an IC50 of 15.5 nM.

Regarding Exatecan Mesylate [reference compound], under setting [3], the IC50 was determined as 2.45 nM.

On to `CC[C@@]1(O)C(=O)OCc2c1cc1n(c2=O)Cc2c-1nc1cc(F)c(C)c3c1c2CCC3` [Compound E-18], for which it took 1.1 nM to reach half-maximal inhibition under setting [2] (IC50).

In the case of `CC[C@@]1(OC(=O)CCCN)C(=O)OCc2c1cc1n(c2=O)Cc2c-1nc1cc(F)c(C)c3c1c2CCC3` [Compound E-43], the IC50 under setting [4] was found to be 32.5 nM.

Regarding `C#CCOC1c2c(nc3cc(F)c(C)c4c3c2CCC4)-c2cc3c(c(=O)n21)COC(=O)[C@]3(O)CC` (some centres unmarked) [Compound E-22], under setting [1], the IC50 was 76.3 nM.

Turning to `CC[C@@]1(O)C(=O)OCc2c1cc1n(c2=O)Cc2c-1nc1cc(F)c(C)c3c1c2[C@@H](OCNC(=O)CN)CC3` (single isomer, unassigned) [E-35b*], the IC50 under setting [4] is 58.8 nM.

Consider `CC[C@@]1(O)C(=O)OCc2c1cc1n(c2=O)Cc2c-1nc1c(Cl)c(F)c(C)c3c1c2CCC3` [Compound E-38], for which the IC50 under setting [1] was determined as 35 nM.

`CC[C@@]1(O)C(=O)OCc2c1cc1n(c2=O)C2(CC=CC2)c2c-1nc1cc(F)c(C)c3c1c2CCC3` [Compound E-24]: under setting [1], the IC50 came out at 517 nM.

Values taken from US20260022127A1, “HEXACYCLIC TOPOISOMERASE INHIBITORS HAVING CYTOTOXIC ACTIVITY ON CANCER CELLS” (priority 2022, published 2026).
